Data published in patent US9546164B2 (GENENTECH, INC., priority 2013, dated 2017).
Where two headings read alike, the source gives them in different places.

Biological target: hNav1.7 (Homo sapiens (Human), UniProt Q15858)
Experiment: Tritiated sulfonamide competitive binding to membranes from cells expressing hNav1.7 and the β1 subunit;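 further: Filter-bound radioactivity counted by liquid scintillation, nonspecific binding defined with excess unlabelled ligand, IC50 fitted to percent inhibition of specific binding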
[1] = read-out: Ligand Binding Assay, 100 pM [3H]compound, membranes with hNav1.7 and β1 subunit, 18 h, room temperature

hNav1.7, sequence (Q15858 other isoform, or with tags, fused parts or gaps): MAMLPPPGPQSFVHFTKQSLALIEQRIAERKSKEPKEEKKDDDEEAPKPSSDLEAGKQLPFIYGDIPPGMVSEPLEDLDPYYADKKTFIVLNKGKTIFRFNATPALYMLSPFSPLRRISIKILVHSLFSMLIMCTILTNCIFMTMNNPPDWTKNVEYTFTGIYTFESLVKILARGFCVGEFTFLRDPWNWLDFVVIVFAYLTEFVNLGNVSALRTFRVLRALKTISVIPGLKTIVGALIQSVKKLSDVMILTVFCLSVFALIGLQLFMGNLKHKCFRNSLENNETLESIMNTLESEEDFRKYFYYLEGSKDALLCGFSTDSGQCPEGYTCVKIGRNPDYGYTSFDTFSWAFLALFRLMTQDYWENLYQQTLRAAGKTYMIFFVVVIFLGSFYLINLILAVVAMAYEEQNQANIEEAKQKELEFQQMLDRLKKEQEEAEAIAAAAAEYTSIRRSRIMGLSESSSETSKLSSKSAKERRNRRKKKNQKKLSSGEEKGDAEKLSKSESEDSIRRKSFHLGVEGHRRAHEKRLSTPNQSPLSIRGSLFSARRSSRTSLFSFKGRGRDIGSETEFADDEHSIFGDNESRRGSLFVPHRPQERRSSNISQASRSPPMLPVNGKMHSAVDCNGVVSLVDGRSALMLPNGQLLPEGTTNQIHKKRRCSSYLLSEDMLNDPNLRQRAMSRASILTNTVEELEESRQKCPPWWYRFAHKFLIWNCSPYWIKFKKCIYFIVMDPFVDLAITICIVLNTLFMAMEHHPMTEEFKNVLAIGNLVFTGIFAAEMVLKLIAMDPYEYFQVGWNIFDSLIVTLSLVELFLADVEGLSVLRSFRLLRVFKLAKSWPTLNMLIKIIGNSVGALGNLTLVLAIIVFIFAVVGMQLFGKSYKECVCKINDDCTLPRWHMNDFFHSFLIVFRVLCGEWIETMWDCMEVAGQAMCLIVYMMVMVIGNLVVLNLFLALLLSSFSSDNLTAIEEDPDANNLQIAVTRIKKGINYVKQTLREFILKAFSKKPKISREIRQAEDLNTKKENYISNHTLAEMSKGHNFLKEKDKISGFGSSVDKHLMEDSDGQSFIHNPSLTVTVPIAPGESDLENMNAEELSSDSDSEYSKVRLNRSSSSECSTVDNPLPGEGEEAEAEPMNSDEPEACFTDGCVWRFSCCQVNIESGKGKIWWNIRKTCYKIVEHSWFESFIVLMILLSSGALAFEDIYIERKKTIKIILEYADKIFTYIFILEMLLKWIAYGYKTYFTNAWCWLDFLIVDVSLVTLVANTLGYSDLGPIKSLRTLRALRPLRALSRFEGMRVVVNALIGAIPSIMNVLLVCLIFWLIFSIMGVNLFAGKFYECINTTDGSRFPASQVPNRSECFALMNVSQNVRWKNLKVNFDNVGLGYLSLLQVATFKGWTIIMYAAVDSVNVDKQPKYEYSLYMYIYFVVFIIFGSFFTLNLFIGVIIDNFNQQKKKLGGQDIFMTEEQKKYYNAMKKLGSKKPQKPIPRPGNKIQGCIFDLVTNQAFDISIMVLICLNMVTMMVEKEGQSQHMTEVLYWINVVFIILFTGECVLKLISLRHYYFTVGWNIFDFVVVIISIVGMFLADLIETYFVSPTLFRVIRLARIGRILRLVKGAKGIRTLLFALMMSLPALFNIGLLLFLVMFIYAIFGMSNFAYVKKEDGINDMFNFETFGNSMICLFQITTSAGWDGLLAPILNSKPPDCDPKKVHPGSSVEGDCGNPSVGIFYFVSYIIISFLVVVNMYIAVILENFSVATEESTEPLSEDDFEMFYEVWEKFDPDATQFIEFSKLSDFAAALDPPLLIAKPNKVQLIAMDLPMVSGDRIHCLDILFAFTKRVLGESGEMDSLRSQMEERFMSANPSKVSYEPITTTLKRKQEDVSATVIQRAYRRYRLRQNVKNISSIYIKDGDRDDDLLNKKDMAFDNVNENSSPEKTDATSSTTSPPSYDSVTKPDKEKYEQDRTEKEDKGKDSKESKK
hNav1.7, sequence (Q07699 19-218 partner): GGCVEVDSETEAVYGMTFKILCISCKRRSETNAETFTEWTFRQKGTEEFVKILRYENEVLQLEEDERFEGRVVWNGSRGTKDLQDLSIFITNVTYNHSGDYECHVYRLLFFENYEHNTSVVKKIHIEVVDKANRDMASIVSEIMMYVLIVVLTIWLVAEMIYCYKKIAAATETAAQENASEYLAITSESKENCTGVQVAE

Row | Molecule | IC50 [1] | IC50
1 | 5-Cyclopropyl-2-fluoro-N-(methylsulfonyl)-4-((1-(1-phenylethyl)-piperidin-4-yl)methoxy)benzamide [Example 146] | 276 nM | –
2 | 5-cyclopropyl-2-fluoro-N-(methylsulfonyl)-4-((1-(6-(trifluoromethyl)pyridin-2-yl)piperidin-4-yl)methoxy)benzamide [Example 592] | 5.4 nM | –
3 | C[C@H](c1cc(Cl)cc(Cl)c1)N1CCC[C@@H](Oc2cc(F)c(C(=O)NS(C)(=O)=O)cc2C2CC2)C1 (single isomer, unassigned) [Example 51] | – | 2.1 nM
4 | COC[C@H](c1cc(Cl)cc(Cl)c1)N1CCC(COc2cc(F)c(C(=O)NS(C)(=O)=O)cc2C2CC2)CC1 (single isomer, unassigned) [Example 163] | 3.6 nM | –
5 | COC[C@@H](c1cc(Cl)cc(Cl)c1)N1CCC(COc2cc(F)c(C(=O)NS(=O)(=O)N3CCC3)cc2C2CC2)CC1 (single isomer, unassigned) [Example 166] | 3.9 nM | –
6 | C[C@@H](c1cc(F)cc(C(F)(F)F)c1)N1CCC(C)(COc2cc(F)c(C(=O)NS(C)(=O)=O)cc2C2CC2)CC1 (single isomer, unassigned) [Example 171] | 5 nM | –
7 | COC[C@@H](c1cc(Cl)cc(Cl)c1)N1CCC(C)(COc2cc(F)c(C(=O)NS(C)(=O)=O)cc2C2CC2)CC1 (single isomer, unassigned) [Example 172] | 3.9 nM | –
8 | COC[C@H](c1cc(Cl)cc(Cl)c1)N1CCC(C)(COc2cc(F)c(C(=O)NS(C)(=O)=O)cc2C2CC2)CC1 (single isomer, unassigned) [Example 173] | 3.9 nM | –
9 | COC[C@@H](c1ccc(F)c(Cl)c1)N1CCC(COc2cc(F)c(C(=O)NS(C)(=O)=O)cc2C2CC2)CC1 (single isomer, unassigned) [Example 181] | 11 nM | –
10 | COC[C@H](c1ccc(F)c(Cl)c1)N1CCC(COc2cc(F)c(C(=O)NS(C)(=O)=O)cc2C2CC2)CC1 (single isomer, unassigned) [Example 182] | 14 nM | –
11 | C[C@H](c1cc(Cl)cc(Cl)c1)N1CC(C)(COc2cc(F)c(C(=O)NS(C)(=O)=O)cc2C2CC2)C1 (single isomer, unassigned) [Example 185] | 7 nM | –
12 | C[C@@H](c1cc(Cl)cc(Cl)c1)N1CC(C)(COc2cc(F)c(C(=O)NS(C)(=O)=O)cc2C2CC2)C1 (single isomer, unassigned) [Example 186] | 4 nM | –
13 | COC[C@@H](c1ccc(F)c(C(F)(F)F)c1)N1CCC(COc2cc(F)c(C(=O)NS(C)(=O)=O)cc2C2CC2)CC1 (single isomer, unassigned) [Example 187] | 5 nM | –
14 | COC[C@H](c1ccc(F)c(C(F)(F)F)c1)N1CCC(COc2cc(F)c(C(=O)NS(C)(=O)=O)cc2C2CC2)CC1 (single isomer, unassigned) [Example 188] | 5.2 nM | –
15 | COC[C@@](C)(c1cc(Cl)cc(Cl)c1)N1CCC(COc2cc(F)c(C(=O)NS(C)(=O)=O)cc2C2CC2)CC1 (single isomer, unassigned) [Example 201] | 5 nM | –
16 | COC[C@](C)(c1cc(Cl)cc(Cl)c1)N1CCC(COc2cc(F)c(C(=O)NS(C)(=O)=O)cc2C2CC2)CC1 (single isomer, unassigned) [Example 202] | 1.6 nM | –
17 | CCS(=O)(=O)NC(=O)c1cc(C2CC2)c(OCC2CCN([C@](C)(COC)c3cc(Cl)cc(Cl)c3)CC2)cc1F (single isomer, unassigned) [Example 203] | 3.6 nM | –
18 | CCS(=O)(=O)NC(=O)c1cc(C2CC2)c(OCC2CCN([C@@](C)(COC)c3cc(Cl)cc(Cl)c3)CC2)cc1F (single isomer, unassigned) [Example 204] | 2.7 nM | –
19 | COC(C)(C)[C@@H](c1cc(Cl)cc(Cl)c1)N1CCC(COc2cc(F)c(C(=O)NS(C)(=O)=O)cc2C2CC2)CC1 (single isomer, unassigned) [Example 205] | 2.5 nM | –
20 | COC(C)(C)[C@H](c1cc(Cl)cc(Cl)c1)N1CCC(COc2cc(F)c(C(=O)NS(C)(=O)=O)cc2C2CC2)CC1 (single isomer, unassigned) [Example 206] | 1.8 nM | –
21 | CCS(=O)(=O)NC(=O)c1cc(C2CC2)c(OCC2CCN([C@H](c3cc(Cl)cc(Cl)c3)C(C)(C)OC)CC2)cc1F (single isomer, unassigned) [Example 207] | 1.7 nM | –
22 | C[C@@H](c1cc(Cl)cc(Cl)c1)N1CCC(C)(COc2cc(F)c(C(=O)NS(C)(=O)=O)cc2C2CC2)CC1 (single isomer, unassigned) [Example 211] | 1.7 nM | –
23 | C[C@H](c1cc(Cl)cc(Cl)c1)N1CCC(C)(COc2cc(F)c(C(=O)NS(C)(=O)=O)cc2C2CC2)CC1 (single isomer, unassigned) [Example 212] | 2.7 nM | –
24 | C[C@H](c1ccc(Cl)c(Cl)c1)N1CCC(COc2cc(F)c(C(=O)NS(C)(=O)=O)cc2C2CC2)CC1 (single isomer, unassigned) [Example 214] | 3.1 nM | –
25 | C[C@H](c1ccc(Cl)c(Cl)c1)N1CCC(C)(COc2cc(F)c(C(=O)NS(C)(=O)=O)cc2C2CC2)CC1 (single isomer, unassigned) [Example 218] | 7.8 nM | –
26 | C[C@@H](c1ccc(Cl)c(Cl)c1)N1CCC(C)(COc2cc(F)c(C(=O)NS(C)(=O)=O)cc2C2CC2)CC1 (single isomer, unassigned) [Example 219] | 8.3 nM | –

Row | Molecule | IC50 [1] | IC50
27 | CS(=O)(=O)NC(=O)c1cc(C2CC2)c(OCC2CCN([C@@H](c3cc(Cl)cc(Cl)c3)C(F)F)CC2)cc1F (single isomer, unassigned) [Example 224] | 4.5 nM | –
28 | C[C@H](c1cc(F)cc(Cl)c1)N1CCC(COc2cc(F)c(C(=O)NS(C)(=O)=O)cc2C2CC2)CC1 (single isomer, unassigned) [Example 230] | 4.4 nM | –
29 | C[C@@H](c1cc(F)cc(Cl)c1)N1CCC(COc2cc(F)c(C(=O)NS(C)(=O)=O)cc2C2CC2)CC1 (single isomer, unassigned) [Example 231] | 5.9 nM | –
30 | CS(=O)(=O)NC(=O)c1cc(C2CC2)c(OC[C@@H]2CCN(Cc3cc(Cl)cc(Cl)c3)C(=O)C2)cc1F (single isomer, unassigned) [Example 234] | 170 nM | –
31 | CS(=O)(=O)NC(=O)c1cc(C2CC2)c(OC[C@H]2CCN(Cc3cc(Cl)cc(Cl)c3)C(=O)C2)cc1F (single isomer, unassigned) [Example 235] | 210 nM | –
32 | C[C@H](c1cc(Cl)cc(Cl)c1F)N1CCC(COc2cc(F)c(C(=O)NS(C)(=O)=O)cc2C2CC2)CC1 (single isomer, unassigned) [Example 237] | 2.9 nM | –
33 | CCS(=O)(=O)NC(=O)c1cc(C2CC2)c(OCC2CCN([C@@H](C)c3ccc(F)cc3Cl)CC2)cc1F (single isomer, unassigned) [Example 245] | 7.9 nM | –
34 | CCS(=O)(=O)NC(=O)c1cc(C2CC2)c(OCC2CCN([C@H](C)c3ccc(F)cc3Cl)CC2)cc1F (single isomer, unassigned) [Example 246] | 7.7 nM | –
35 | C[C@@H](c1ccc(OC(F)(F)F)cc1)N1CCC(C)(COc2cc(F)c(C(=O)NS(C)(=O)=O)cc2C2CC2)CC1 (single isomer, unassigned) [Example 248] | 10 nM | –
36 | C[C@H](c1ccc(OC(F)(F)F)cc1)N1CCC(C)(COc2cc(F)c(C(=O)NS(C)(=O)=O)cc2C2CC2)CC1 (single isomer, unassigned) [Example 249] | 39 nM | –
37 | C[C@H](c1cccc(F)c1)N1CCC(C)(COc2cc(F)c(C(=O)NS(C)(=O)=O)cc2C2CC2)CC1 (single isomer, unassigned) [Example 250] | 43 nM | –
38 | C[C@@H](c1cccc(F)c1)N1CCC(C)(COc2cc(F)c(C(=O)NS(C)(=O)=O)cc2C2CC2)CC1 (single isomer, unassigned) [Example 251] | 49 nM | –
39 | COC[C@H](c1cccc(Cl)c1)N1CCC(COc2cc(F)c(C(=O)NS(C)(=O)=O)cc2C2CC2)CC1 (single isomer, unassigned) [Example 263] | 20 nM | –
40 | COC[C@@H](c1ccc(Cl)c(Cl)c1)N1CCC(COc2cc(F)c(C(=O)NS(C)(=O)=O)cc2C2CC2)CC1 (single isomer, unassigned) [Example 264] | 9.2 nM | –
41 | COC[C@H](c1ccc(Cl)c(Cl)c1)N1CCC(COc2cc(F)c(C(=O)NS(C)(=O)=O)cc2C2CC2)CC1 (single isomer, unassigned) [Example 265] | 100 nM | –
42 | C[C@H](c1cc(Cl)cc(Cl)c1)N1CCC(COc2cc(F)c(C(=O)NS(=O)(=O)N3CCC3)cc2C2CC2)CC1 (single isomer, unassigned) [Example 271] | 3.7 nM | –
43 | C[C@@H](c1cc(Cl)cc(Cl)c1)N1CCC(COc2cc(F)c(C(=O)NS(=O)(=O)N3CCC3)cc2C2CC2)CC1 (single isomer, unassigned) [Example 272] | 4.2 nM | –
44 | C[C@H](c1cc(Cl)cc(C(F)(F)F)c1)N1CCC(COc2cc(F)c(C(=O)NS(C)(=O)=O)cc2C2CC2)CC1 (single isomer, unassigned) [Example 276] | 5.7 nM | –
45 | C[C@@H](c1cc(Cl)cc(C(F)(F)F)c1)N1CCC(COc2cc(F)c(C(=O)NS(C)(=O)=O)cc2C2CC2)CC1 (single isomer, unassigned) [Example 277] | 4 nM | –
46 | C[C@H](c1cc(Cl)cc(C(F)(F)F)c1)N1CCC(C)(COc2cc(F)c(C(=O)NS(C)(=O)=O)cc2C2CC2)CC1 (single isomer, unassigned) [Example 278] | 3.3 nM | –
47 | C[C@@H](c1cc(Cl)cc(C(F)(F)F)c1)N1CCC(C)(COc2cc(F)c(C(=O)NS(C)(=O)=O)cc2C2CC2)CC1 (single isomer, unassigned) [Example 279] | 4 nM | –
48 | CCS(=O)(=O)NC(=O)c1cc(C2CC2)c(OCC2(C)CN([C@H](C)c3cc(Cl)cc(Cl)c3)C2)cc1F (single isomer, unassigned) [Example 288] | 3.5 nM | –
49 | CCS(=O)(=O)NC(=O)c1cc(C2CC2)c(OCC2(C)CN([C@@H](C)c3cc(Cl)cc(Cl)c3)C2)cc1F (single isomer, unassigned) [Example 289] | 3.5 nM | –
50 | CS(=O)(=O)NC(=O)c1cc(C2CC2)c(O[C@@H]2CCCN([C@H](c3ccc(F)cc3Cl)C(F)(F)F)C2)cc1F (single isomer, unassigned) [Example 297] | 10.8 nM | –
51 | CS(=O)(=O)NC(=O)c1cc(C2CC2)c(O[C@@H]2CCCN([C@@H](c3ccc(F)cc3Cl)C(F)(F)F)C2)cc1F (single isomer, unassigned) [Example 298] | 4.6 nM | –
